As usually defined, the EC50 is the midpoint of the concentration-response curve.

The structures appear in SMILES notation.

The record followed here is patent US8530493B2, “Indolopyridines as Eg5 kinesin modulators” (4SC AG, priority 2006, dated 2013).

The experiment relates to RKO p21 uninduced (proliferating) colon adenocarcinoma cells. In words: Alamar Blue cell viability assay, RKO p21 uninduced (proliferating). It counts as cell-based. Particulars: Homo sapiens, Table B3, anti-proliferative/cytotoxic activity, 72 hours, read-out: −log EC50 RKO p21 uninduced (proliferating) (converted). As for the experimental part:
The anti-proliferative/cytotoxic activity of the compounds described herein can be tested on subclones of RKO human colon adenocarcinoma cells (Schmidt et al., Oncogene 19, 2423-2429; 2000) using the Alamar Blue cell viability assay (described in O'Brien et al. Eur J Biochem 267, 5421-5426, 2000). The compounds are dissolved as 10 mM solutions in DMSO and subsequently diluted in semi-logarithmic steps. DMSO dilutions are further diluted 1:100 into Dulbecco's modified Eagle's medium (DMEM) containing 10% fetal calf serum to a final concentration twice as much as the final concentration in the test. RKO subclones are seeded into 96 well flat bottom plates at a density of 4000 cells per well in a volume of 50 μl per well. 24 hours after seeding the 50 μl each of the compound dilutions in DMEM medium are added into each well of the 96 well plate. Each compound dilution is tested as triplicates. Wells containing untreated control cells are filled with 50 μl DMEM medium containing 1% DMSO. The cells are then incubated with the substances for 72 hours at 37° C. in a humidified atmosphere containing 5% carbon dioxide. To determine the viability of the cells, 10 μl of an Alamar Blue solution (Biosource) are added and the fluorescence is measured at an extinction of 544 nm and an emission of 590 nm. For the calculation of the cell viability the emission value from untreated cells is set as 100% viability and the emission rates of treated cells are set in relation to the values of untreated cells. Viabilities are expressed as % values. The Graphpad Prism program is used for the calculation of EC50 values for anti-proliferative/cytotoxic activity out of the obtained dose-response curves.
To determine the cell cycle specific mode of action, subclones of RKO colon adenocarcinoma cells (RKOp21 or RKOp27 as described by Schmidt et al. in Oncogene 19, 2423-2429; 2000) are seeded into 96 well flat bottom plates at a density of 16000 cells per well in a volume of 50 μl per well in DMEM growth medium with 10% FCS containing 10 μM Ponasterone A. 24 hours after seeding the 50 μl each of the compound dilutions in DMEM medium are added into each well of the 96-well plate. Each compound dilution is tested as triplicates. Wells containing untreated control cells are filled with 50 μl DMEM medium containing 1% DMSO. The cells are then incubated with the substances for 72 hours at 37° C. in a humidified atmosphere containing 5% carbon dioxide. To determine the viability of the cells, 10 μl of an Alamar Blue solution (Biosource) are added and the fluorescence is measured at an extinction of 544 nm and an emission of 590 nm. For the calculation of the cell viability the emission value from untreated cells is set as 100% viability and the emission rates of treated cells are set in relation to the values of untreated cells. Viabilities are expressed as % values. The Graphpad Prism program (GraphPad Software, Inc) is used for the calculation of EC50 values out of the obtained dose-response curves. Viability is compared of proliferating cells grown in the absence of the inducer Ponasterone A, versus viability of cells arrested by the expression of ectopic p27Kip1 induced by Ponasterone A.
Representative values for anti-proliferation/cytotoxicity [measured as −log EC50 (mol/l)] determined in the aforementioned assays follow from the following tables B1, B2 and B3, in which the numbers of the compounds correspond to the numbers of the examples.
(Resazurin is reduced to fluorescent resorufin, in cell work by metabolically active cells.)
With `C=CCN(C)CCCN1C(=O)N2[C@H](c3cccc(O)c3)c3[nH]c4cc(F)c(OC)cc4c3C[C@@]2(C)C1=O` (racemic) [Example 317, (3aSR,10RS)-2-[3-(Allyl-methyl-amino)-propyl]-7-fluoro-10-(3-hydroyx-phenyl)-6-methoxy-3a-methyl-3a,4,9,10-tetrahydro-2,9,10a-triaza-cyclopenta[b]fluorene-1,3-dione], the EC50 is 39.8 to 251 nM.

For `COc1ccc2[nH]c3c(c2c1)C[C@@]1(C)C(=O)N(CCCNCC(C)C)C(=O)N1[C@@H]3c1cccc(O)c1` [Example 534, (3aS,10R)-10-(3-Hydroxy-phenyl)-2-(3-isobutylamino-propyl)-6-methoxy-3a-methyl-3a,4,9,10-tetrahydro-2,9,10a-triaza-cyclopenta[b]fluorene-1,3-dione], the EC50 is not above 39.8 nM.

For `CC(=O)N1CCN(CCN2C(=O)N3[C@H](c4cccc(O)c4)c4[nH]c5cc(F)c(Cl)cc5c4C[C@@]3(C)C2=O)CC1` (racemic) [Example 360, (3aSR,10RS)-2-[2-(4-Acetyl-piperazin-1-yl)-ethyl]-6-chloro-7-fluoro-10-(3-hydroxy-phenyl)-3a-methyl-3a,4,9,10-tetrahydro-2,9,10a-triaza-cyclopenta[b]fluorene-1,3-dione], the EC50 was 39.8 to 251 nM.

Turning to `C[C@@]12Cc3c([nH]c4ccc(Br)cc34)[C@@H](c3cccc(O)c3)N1C(=O)N(CCNCC1CC1)C2=O` (racemic) [Example 376, (3aSR,10RS)-6-Bromo-2-[2-(cyclopropylmethyl-amino)-ethyl]-10-(3-hydroxy-phenyl)-3a-methyl-3a,4,9,10-tetrahydro-2,9,10a-triaza-cyclopenta[b]fluorene-1,3-dione], the EC50 is not above 39.8 nM.

Regarding `C[C@@]12Cc3c([nH]c4ccc(OC(F)F)cc34)[C@@H](c3cccc(O)c3)N1C(=O)N(CCNCCO)C2=O` (racemic) [Example 285, (3aSR,10RS)-6-(1,1-Difluoro-methoxy)-2-[2-(2-hydroxy-ethylamino)-ethyl]-10-(3-hydroxy-phenyl)-3a-methyl-3a,4,9,10-tetrahydro-2,9,10a-triaza-cyclopenta[b]fluorene-1,3-dione], the EC50 is 39.8 to 251 nM.

With `COc1cc2c3c([nH]c2cc1F)[C@@H](c1cccc(O)c1)N1C(=O)N(CCN2CCC(C)CC2)C(=O)[C@]1(C)C3` (racemic) [Example 264, (3aSR,10RS)-7-Fluoro-10-(3-hydroxy-phenyl)-6-methoxy-3a-methyl-2-[2-(4-methyl-piperidin-1-yl)-ethyl]-3a,4,9,10-tetrahydro-2,9,10a-triaza-cyclopenta[b]fluorene-1,3-dione], the EC50 is 39.8 to 251 nM.

Consider `CC(C)CNCCCN1C(=O)N2[C@H](c3cccc(O)c3)c3[nH]c4ccc(OC(F)F)cc4c3C[C@@]2(C)C1=O` (racemic) [Example 199, (3aSR,10RS)-6-(1,1-Difluoro-methoxy)-10-(3-hydroxy-phenyl)-2-(3-isobutylamino-propyl)-3a-methyl-3a,4,9,10-tetrahydro-2,9,10a-triaza-cyclopenta[b]fluorene-1,3-dione], for which the EC50 was 39.8 to 251 nM.

For the compound `C#CCN(C)CCN1C(=O)N2[C@H](c3cccc(O)c3)c3[nH]c4ccc(Br)cc4c3C[C@@]2(C)C1=O` (racemic) [Example 382, (3aSR,10RS)-6-Bromo-10-(3-hydroxy-phenyl)-3a-methyl-2-[2-(methyl-prop-2-ynyl-amino)-ethyl]-3a,4,9,10-tetrahydro-2,9,10a-triaza-cyclopenta[b]fluorene-1,3-dione], the EC50 is 39.8 to 251 nM.

Take `C=CCN(C)CCN1C(=O)N2[C@H](c3cccc(O)c3)c3[nH]c4cc(F)c(OC)cc4c3C[C@@]2(C)C1=O` (racemic) [Example 452, (3aSR,10RS)-2-[2-(Allyl-methyl-amino)-ethyl]-7-fluoro-10-(3-hydroxy-phenyl)-6-methoxy-3a-methyl-3a,4,9,10-tetrahydro-2,9,10a-triaza-cyclopenta[b]fluorene-1,3-dione]: the EC50 was 39.8 to 251 nM.

In the case of `COc1cc2c3c([nH]c2cc1F)[C@@H](c1cccc(O)c1)N1C(=O)N(CCNC(C)(C)C)C(=O)[C@]1(C)C3` (racemic) [Example 256, (3aSR,10RS)-2-(2-tert-Butylamino-ethyl)-7-fluoro-10-(3-hydroxy-phenyl)-6-methoxy-3a-methyl-3a,4,9,10-tetrahydro-2,9,10a-triaza-cyclopenta[b]fluorene-1,3-dione], the EC50 was not above 39.8 nM.

Regarding `COc1cc2c3c([nH]c2cc1F)[C@@H](c1cccc(O)c1)N1C(=O)N(CCNCCO)C(=O)[C@]1(C)C3` [Example 245, (3aS,10R)-7-Fluoro-2-[2-(2-hydroxy-ethylamino)-ethyl]-10-(3-hydroxy-phenyl)-6-methoxy-3a-methyl-3a,4,9,10-tetrahydro-2,9,10a-triaza-cyclopenta[b]fluorene-1,3-dione], the 50% effective concentration (EC50) was 39.8 to 251 nM.

For `CNCCCN1C(=O)N2[C@H](c3cccc(O)c3)c3[nH]c4ccc(Br)cc4c3C[C@@]2(C)C1=O` (racemic) [Example 211, (3aSR,10RS)-6-Bromo-10-(3-hydroyx-phenyl)-3a-methyl-2-(3-methylamino-propyl)-3a,4,9,10-tetrahydro-2,9,10a-triaza-cyclopenta[b]fluorene-1,3-dione], the EC50 is not above 39.8 nM.

Regarding `COc1ccc2[nH]c3c(c2c1)C[C@@]1(C)C(=O)N(CCCN(C)CCO)C(=O)N1[C@@H]3c1cccc(O)c1` [Example 542, (3aS,10R)-2-{3-[(2-Hydroxy-ethyl)-methyl-amino]-propyl}-10-(3-hydroxy-phenyl)-6-methoxy-3a-methyl-3a,4,9,10-tetrahydro-2,9,10a-triaza-cyclopenta[b]fluorene-1,3-dione], the EC50 is not above 39.8 nM.

For `CCNCCCN1C(=O)N2[C@H](c3cccc(O)c3)c3[nH]c4ccc(OCC)cc4c3C[C@@]2(C)C1=O` (racemic) [Example 187, (3aSR,10RS)-6-Ethoxy-2-(3-ethylamino-propyl)-10-(3-hydroxy-phenyl)-3a-methyl-3a,4,9,10-tetrahydro-2,9,10a-triaza-cyclopenta[b]fluorene-1,3-dione], the EC50 was 39.8 to 251 nM.

With `CC(C)CNCCN1C(=O)N2[C@H](c3cccc(O)c3)c3[nH]c4ccc(Br)cc4c3C[C@@]2(C)C1=O` (racemic) [Example 391, (3aSR,10RS)-6-Bromo-10-(3-hydroxy-phenyl)-2-(2-isobutylamino-ethyl)-3a-methyl-3a,4,9,10-tetrahydro-2,9,10a-triaza-cyclopenta[b]fluorene-1,3-dione], the EC50 was not above 39.8 nM.

Take `CCOc1ccc2[nH]c3c(c2c1)C[C@@]1(C)C(=O)N(CCCN2CC=CC2)C(=O)N1[C@@H]3c1cccc(O)c1` (racemic) [Example 222, (3aSR,10RS)-2-[3-(2,5-Dihydro-pyrrol-1-yl)-propyl]-6-ethoxy-10-(3-hydroxy-phenyl)-3a-methyl-3a,4,9,10-tetrahydro-2,9,10a-triaza-cyclopenta[b]fluorene-1,3-dione]: the EC50 is 39.8 to 251 nM.

Consider `C[C@@]12Cc3c([nH]c4cc(F)c(Cl)cc34)[C@@H](c3cccc(O)c3)N1C(=O)N(CCCNC1CCC1)C2=O` (racemic) [Example 463, (3aSR,10RS)-6-Chloro-2-(3-cyclobutylamino-propyl)-7-fluoro-10-(3-hydroxy-phenyl)-3a-methyl-3a,4,9,10-tetrahydro-2,9,10a-triaza-cyclopenta[b]fluorene-1,3-dione], for which the EC50 is 39.8 to 251 nM.
